Measurements reported in US20100267734A1, “N-[(3,5-DICHLOROPHENYL)METHYL]-2-(4-METHYL-1-PIPERAZINYL)-2-(1-NAPHTHALENYL)ETHANAMIDE AS GHRELIN RECEPTOR MODULATOR” (Glaxo Group Limited, priority 2007, published 2010).
Where a name gives a salt, the structure may show the parent alone.

Columns and labels:
Human GHSR [1] = biological target: T1, Human GHSR (Homo sapiens, UniProt Q92847); experiment: GHSR Agonist BACMAM FLIPR Assay (Method Y); format: cell-based; parameters: The full-length gene was transferred into pCDN for expression analysis; expressed in transfected cells; host or cells: U2OS cells transduced with human GHSR BacMam virus (pFastBacmam, CMV promoter); conditions: U2OS cells transduced with human GHSR BACMAM virus, accurate to within ±0.5
T1 sequence (Q92847 whole entry): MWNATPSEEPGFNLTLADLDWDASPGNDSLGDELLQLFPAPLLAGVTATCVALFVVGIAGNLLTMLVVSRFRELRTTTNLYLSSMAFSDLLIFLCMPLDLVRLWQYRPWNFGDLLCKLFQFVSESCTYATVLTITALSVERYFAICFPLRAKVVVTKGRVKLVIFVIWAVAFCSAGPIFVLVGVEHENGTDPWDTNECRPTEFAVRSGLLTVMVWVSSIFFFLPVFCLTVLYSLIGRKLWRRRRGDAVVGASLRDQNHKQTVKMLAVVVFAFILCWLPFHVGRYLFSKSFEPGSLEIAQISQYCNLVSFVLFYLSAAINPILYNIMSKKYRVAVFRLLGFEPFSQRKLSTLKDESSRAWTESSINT
From the text: Human GHS-R was cloned from human hypothalamus cDNA and TOPO Ta cloned into pCR2.1. The sequence was confirmed. The full-length gene was transferred into pCDN for expression analysis. The sequence was confirmed again and the plasmid was electroporated into CHO cells. The clones were screened by FLIPR. The open reading frame of GHS-R was transferred from pCDN into pFastBacmam vector. This vector was used to generate recombinant baculoviruses in which the insect cell-specific polyhedrin promoter has been replaced with a mammalian cell-active promoter, in this case CMV. This was then used with the Bac to Bac expression system (Invitrogen). Briefly the vector was transformed into DH10 bac E. coli and the bacmid isolated from the transformed cells. […] Human GHSR BACMAM virus was added to the cell suspension at an appropriate % volume (calculated for individual batches of BACMAM virus as viral titres vary). […] The plates were placed in a FLuorimetric Imaging Plate Reader (FLIPR, Molecular Devices) where 10 μl of compound was added to the cells and fluorescence measurements were taken. […] Intrinsic activity of the compounds was calculated by using the maximum asymptote of it's concentration response curve relative to the maximum asymptote of the hGhrelin concentration response curve.

Human GHSR [2] = biological target: T1, Human GHSR; experiment: GHS-R GTPγS functional antagonist assay; format: biochemical; parameters: The full-length gene was transferred into pCDN for expression analysis; expressed in transfected cells; host or cells: CHO cells (electroporated, pCDN) or HEK293T cells (transient, pcDNA3); membranes prepared from the cultured cells; conditions: membranes of HEK293T cells transiently expressing GHS-R; human Ghrelin at EC80; [35S]GTPγS SPA
Method: Human GHS-R was cloned from human hypothalamus cDNA and TOPO Ta cloned into pCR2.1. The sequence was confirmed. The full-length gene was transferred into pCDN for expression analysis. The sequence was confirmed again and the plasmid was electroporated into CHO cells. The clones were screened by FLIPR.
HEK293T cells (HEK293 cells stably expressing the SV40 large T-antigen) were maintained in DMEM containing 10% (v/v) newborn calf serum and 2 mM glutamine. Cells were seeded in 60 mm culture dishes and grown to 60-80% confluency (18-24 h) prior to transfection with pcDNA3 containing the relevant DNA species using Lipofectamine reagent. […]
The plate was then incubated on a shaker at room temperature for 30 mins followed by centrifugation for 5 mins at 1500 rpm. The plate was read between 3 and 6 hours after completion of centrifuge run in a Wallac Microbeta counter on a 1 min normalised tritium count protocol. Data was analysed using a 4-parameter logistic equation. […]
Protocol as described above for functional agonist assay, except prior to addition of the [35-S], 10 ul of human Ghrelin solution in assay buffer was added to give a final concentration equating to EC80 (determined for each assay).

Human GHSR [3] = biological target: T1, Human GHSR; experiment: GHSR Antagonist BACMAM FLIPR Assay (Method B); format: cell-based; parameters: The full-length gene was transferred into pCDN for expression analysis; expressed in transfected cells; host or cells: U2OS cells transduced with human GHSR BacMam virus (pFastBacmam, CMV promoter); conditions: U2OS cells transduced with human GHSR BACMAM virus, EC80 hGhrelin, accurate to within ±0.5
From the text: Human GHS-R was cloned from human hypothalamus cDNA and TOPO Ta cloned into pCR2.1. The sequence was confirmed. The full-length gene was transferred into pCDN for expression analysis. The sequence was confirmed again and the plasmid was electroporated into CHO cells. The clones were screened by FLIPR. The open reading frame of GHS-R was transferred from pCDN into pFastBacmam vector. This vector was used to generate recombinant baculoviruses in which the insect cell-specific polyhedrin promoter has been replaced with a mammalian cell-active promoter, in this case CMV. This was then used with the Bac to Bac expression system (Invitrogen). Briefly the vector was transformed into DH10 bac E. coli and the bacmid isolated from the transformed cells. The bacmid was then transfected into Sf9 insect cells grown in ExCell 420 (JRH) medium in 6-well dishes for the production of recombinant baculovirus particules. 24 hours prior to assay U2OS cells at confluence 100% were harvested and spun down. The supernatant was removed and the cells resuspended in media (DMEM+10% FBS+1% L-Glutamine). […] Human GHSR BACMAM virus was added to the cell suspension at an appropriate % volume (calculated for individual batches of BACMAM virus as viral titres vary). […] Maximum changes in fluorescence were plotted and curves fitted using a 4-parameter logistic equation to generate pIC50 values.

Row | SMILES | EC50 (Human GHSR [1]) [nM] | Ki (Human GHSR [2]) [nM] | IC50 (Human GHSR [3]) [nM]
1 | CN1CCN([C@@H](C(=O)NCc2cc(Cl)cc(Cl)c2)c2cccc3ccccc23)CC1 [Compound 3, (2R)-N-[(3,5-dichlorophenyl)methyl]-2-(4-methyl-1-piperazinyl)-2-(1-naphthalenyl)ethanamide hydrochloride] | > 2000 | < 10 | 10
2 | CN1CCN(C(C(=O)NCc2cc(Cl)cc(Cl)c2)c2cccc3ccccc23)CC1 (racemic) [Compound 1, (±)-N-[(3,5-dichlorophenyl)methyl]-2-(4-methyl-1-piperazinyl)-2-(1-naphthalenyl)ethanamide] |  | < 10 | 
